The source of these data is patent US9499553B2 (CHUGAI SEIYAKU KABUSHIKI KAISHA, priority 2013, dated 2016).

Structures can show the parent of a compound that is named as a salt.

The target in one test is T1, human NaPi-IIb (Homo sapiens, UniProt O95436).
T1 construct: expressed in transfected cells
T1 sequence (O95436 1-690): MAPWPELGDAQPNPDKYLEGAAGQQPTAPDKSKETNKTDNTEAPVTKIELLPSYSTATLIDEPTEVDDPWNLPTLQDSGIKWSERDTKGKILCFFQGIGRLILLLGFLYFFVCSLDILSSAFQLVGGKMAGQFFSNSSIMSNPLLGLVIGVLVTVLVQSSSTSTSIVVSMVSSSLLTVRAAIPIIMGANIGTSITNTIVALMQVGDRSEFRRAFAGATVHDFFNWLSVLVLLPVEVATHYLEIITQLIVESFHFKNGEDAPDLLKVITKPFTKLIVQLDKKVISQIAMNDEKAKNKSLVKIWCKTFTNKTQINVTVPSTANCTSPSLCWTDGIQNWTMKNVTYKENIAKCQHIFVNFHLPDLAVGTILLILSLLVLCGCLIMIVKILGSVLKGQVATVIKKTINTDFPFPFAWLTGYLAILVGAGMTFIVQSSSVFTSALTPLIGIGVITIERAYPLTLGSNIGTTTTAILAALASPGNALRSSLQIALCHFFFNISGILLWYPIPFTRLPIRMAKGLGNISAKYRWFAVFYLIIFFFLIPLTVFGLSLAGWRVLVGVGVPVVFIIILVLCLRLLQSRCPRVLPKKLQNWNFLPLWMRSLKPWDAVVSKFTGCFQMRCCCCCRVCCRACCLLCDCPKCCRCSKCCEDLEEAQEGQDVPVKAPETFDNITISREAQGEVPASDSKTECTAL
Kind of test: Inhibitory effect on 33PO4 uptake into human NaPi-IIb-expressing CHO cells. The format is cell-based. Conditions: read-out: IC50. On the procedure: Test Example 2: Inhibitory Effect on PO4 Uptake into Human NaPi-IIb-Expressing Cell CHO cells were transfected with human NaPi-IIb expression plasmids, and a stably human NaPi-IIb-expressing cell line was obtained using G418. The human NaPi-IIb-expressing cells were inoculated to a 96-well plate and incubated overnight in a CO2 incubator. […] After a given time, a 1/20 volume of buffer A containing ^33PO4 was added thereto and reacted at room temperature. After washing with ice-cold buffer A, a liquid scintillator was added to each reaction mixture, and the amount of ^33PO4 uptake was measured using TopCount.
In general, IC50 refers to the concentration at which inhibition is half-maximal. Consider `CN1N(Cc2ccc(C#CCN3CCOCC3)c(F)c2F)C(=O)C(C(=O)Nc2ccc(Cl)cc2-c2cc(C(F)(F)F)ncn2)=C(O)C1(C)C` [Example 316], for which the IC50 was 14.2 µM.

For `C[C@]12CCCN1N(Cc1cc(F)ccc1F)C(=O)C(C(=O)Nc1cc(F)c(Br)c(F)c1)=C2O` [Example 193], the IC50 was 6.4 µM.

For the molecule `CN1[C@@H](C(C)(C)C)C(O)=C(C(=O)Nc2ccc(Cl)cc2-c2cc(C(F)(F)F)ncn2)C(=O)N1Cc1ccc(OCCN2CCOCC2)c(F)c1F` [Example 265, (3S)-3-tert-Butyl-N-[4-chloro-2-[6-(trifluoromethyl)pyrimidin-4-yl]phenyl]-1-[[2,3-difluoro-4-(2-morpholin-4-ylethoxy)phenyl]methyl]-4-hydroxy-2-methyl-6-oxo-3H-pyridazine-5-carboxamide], the 50% inhibitory concentration (IC50) worked out at 13.3 µM.

With `Cc1cccc(CN2C(=O)C(C(=O)Nc3ccc(C(F)(F)F)cc3-c3ccc(C(F)(F)F)nc3)=C(O)[C@@]3(C)CCCN23)c1F` [Example 205], the 50% inhibitory concentration (IC50) was determined as 1.6 µM.

For the molecule `C[C@]12CCCN1N(Cc1ccc(C#N)cc1)C(=O)C(C(=O)Nc1cc(F)c(Br)c(F)c1)=C2O` [Example 222], the IC50 turned out to be 17.6 µM.

For `C#Cc1ccc(CN2C(=O)C(C(=O)Nc3ccc(C(F)(F)F)cc3-c3cc(C(F)(F)F)ncn3)=C(O)[C@@]3(C)CCCN23)c(F)c1F` [Example 126, (4aR)-1-[(4-Ethynyl-2,3-difluorophenyl)methyl]-4-hydroxy-4a-methyl-2-oxo-N-[4-(trifluoromethyl)-2-[6-(trifluoromethyl)pyrimidin-4-yl]phenyl]-6,7-dihydro-5H-pyrrolo[1,2-b]pyridazine-3-carboxamide], the IC50 was 5.5 µM.

As to `CN1N(Cc2ccc(OCCN3CCOCC3)c(F)c2F)C(=O)C(C(=O)Nc2ccc(C(F)(F)F)cc2-c2ccc(C(F)(F)F)nc2)=C(O)C1(C)C` [Example 314, 2-[[2,3-Difluoro-4-(2-morpholin-4-ylethoxy)phenyl]methyl]-5-hydroxy-1,6,6-trimethyl-3-oxo-N-[4-(trifluoromethyl)-2-[6-(trifluoromethyl)pyridin-3-yl]phenyl]pyridazine-4-carboxamide], the IC50 was determined as 11.8 µM.

For the molecule `C[C@]12CCCN1N(Cc1cccc(F)c1F)C(=O)C(C(=O)Nc1ccc(C(F)(F)F)cc1-c1cc(C#N)ncn1)=C2O` [Example 100], the IC50 came out at 6.7 µM.

Regarding `C[C@]12CCCN1N(Cc1ccc(OCCN3CCOCC3)c(Cl)c1)C(=O)C(C(=O)Nc1ccc(C(F)(F)F)cc1-c1ccc(C(F)(F)F)nc1)=C2O` [Example 149, (4aR)-1-[[3-Chloro-4-(2-morpholin-4-ylethoxy)phenyl]methyl]-4-hydroxy-4a-methyl-2-oxo-N-[4-(trifluoromethyl)-2-[6-(trifluoromethyl)pyridin-3-yl]phenyl]-6,7-dihydro-5H-pyrrolo[1,2-b]pyridazine-3-carboxamide], the half-inhibitory concentration (IC50) amounted to 19.7 µM.

For the molecule `C[C@]12CCCN1N(Cc1c(Cl)cc(OCCN3CCOCC3)cc1Cl)C(=O)C(C(=O)Nc1cnc(C(F)(F)F)nc1-c1ccc(C(F)(F)F)nc1)=C2O` [Example 146, (4aR)-1-[[2,6-Dichloro-4-(2-morpholin-4-ylethoxy)phenyl]methyl]-4-hydroxy-4a-methyl-2-oxo-N-[2-(trifluoromethyl)-4-[6-(trifluoromethyl)pyridin-3-yl]pyrimidin-5-yl]-6,7-dihydro-5H-pyrrolo[1,2-b]pyridazine-3-carboxamide hydrochloride], the concentration for half-maximal inhibition (IC50) is 10.2 µM.

For the molecule `Cc1ccccc1CN1C(=O)C(C(=O)Nc2ccc(C(F)(F)F)cc2-c2cc(C(F)(F)F)ncn2)=C(O)[C@@]2(C)CCCN12` [Example 185], the IC50 amounted to 4.9 µM.

`CN1N(Cc2cccc(F)c2F)C(=O)C(C(=O)Nc2ccc(C(F)(F)F)nc2-c2cncc(C(F)(F)F)c2)=C(O)C1(C)C` [Example 306]: the half-inhibitory concentration (IC50) is 8.4 µM.

Consider `CN1[C@@H](C(C)(C)C)C(O)=C(C(=O)Nc2ccc(C(F)(F)F)cc2-c2ccc(C(F)(F)F)nc2)C(=O)N1Cc1ccc(OCCN2CCOCC2)c(F)c1F` [Example 266], for which the half-inhibitory concentration (IC50) worked out at 11.6 µM.

With `CC(C)[C@H]1C(O)=C(C(=O)Nc2ccc(Cl)cc2-c2ccc(C(F)(F)F)nc2)C(=O)N(Cc2ccc(OCCN3CCOCC3)c(F)c2F)N1C` [Example 281], the concentration for half-maximal inhibition (IC50) came to 18.8 µM.

On to `Cc1ccc(CN2C(=O)C(C(=O)Nc3ccc(C(F)(F)F)cc3-c3cc(C(F)(F)F)ncn3)=C(O)[C@@]3(C)CCCN23)cc1` [Example 187], for which the half-inhibitory concentration (IC50) was 6.7 µM.

`C[C@]12CCCN1N(Cc1ccc(F)c(F)c1)C(=O)C(C(=O)Nc1cc(F)c(Br)c(F)c1)=C2O` [Example 191]: the IC50 turned out to be 14.5 µM.

Turning to `C[C@@H]1COC[C@H](C)N1CCOc1ccc(CN2C(=O)C(C(=O)Nc3ccc(C(F)(F)F)cc3-c3cc(C(F)(F)F)ncn3)=C(O)C3(CCC3)N2C)c(F)c1F` [Example 344], the IC50 amounted to 13.7 µM.

Consider `CN1N(Cc2cccc(F)c2F)C(=O)C(C(=O)Nc2ccc(C(F)(F)F)cc2-c2ccc(S(=O)(=O)N(C)C)cc2)=C(O)C1(C)C` [Example 308], for which the IC50 was 12.6 µM.

With `COC(=O)c1cc(F)c(CN2C(=O)C(C(=O)Nc3ccc(C(F)(F)F)cc3-c3ccc(C(F)(F)F)nc3)=C(O)[C@@]3(C)CCCN23)c(F)c1` [Example 165, Methyl 4-[[(4aR)-4-Hydroxy-4a-methyl-2-oxo-3-[[4-(trifluoromethyl)-2-[6-(trifluoromethyl)pyridin-3-yl]phenyl]carbamoyl]-6,7-dihydro-5H-pyrrolo[1,2-b]pyridazin-1-yl]methyl]-3,5-difluorobenzoate], the IC50 amounted to 1.8 µM.

`CSc1ccc(-c2nc(C(F)(F)F)ccc2NC(=O)C2=C(O)[C@@]3(C)CCCN3N(Cc3cccc(F)c3F)C2=O)cn1` [Example 105]: the IC50 is 6.3 µM.

For `C[C@]12CCCN1N(Cc1cccc(F)c1F)C(=O)C(C(=O)Nc1ccc(C(F)(F)F)cc1-c1ncnc(Cl)c1Cl)=C2O` [Example 70], the IC50 is 8.4 µM.

Still in this test, the particulars now being: read-out: IC50 against 33PO4 uptake into human NaPi-IIb-expressing cells.
Take `CN1N(Cc2ccc(OCCN3CCN(CCO)CC3)c(F)c2F)C(=O)C(C(=O)Nc2ccc(C(F)(F)F)cc2-c2cc(C(F)(F)F)ncn2)=C(O)C12CCC2` [Example 360]: the 50% inhibitory concentration (IC50) came to 23.1 µM.

In the case of `COCCN1CC(Oc2ccc(CN3C(=O)C(C(=O)Nc4ccc(C(F)(F)F)cc4-c4cc(C(F)(F)F)ncn4)=C(O)C4(CCC4)N3C)c(F)c2F)C1` [Example 406, 6-[[2,3-Difluoro-4-[1-(2-methoxyethyl)azetidin-3-yl]oxyphenyl]methyl]-9-hydroxy-5-methyl-7-oxo-N-[4-(trifluoromethyl)-2-[6-(trifluoromethyl)pyrimidin-4-yl]phenyl]-5,6-diazaspiro[3.5]non-8-ene-8-carboxamide], the IC50 is 23.1 µM.

In the case of `CN1N(Cc2ccc(OCCCOCCCO)c(F)c2F)C(=O)C(C(=O)Nc2ccc(C(F)(F)F)cc2-c2cc(C(F)(F)F)ncn2)=C(O)C12CCCC2` [Example 398], the IC50 was determined as 9.9 µM.

Regarding `CN(CCOc1ccc(CN2C(=O)C(C(=O)Nc3ccc(C(F)(F)F)cc3-c3cc(C(F)(F)F)ncn3)=C(O)C3(CCC3)N2C)c(F)c1F)C1COC1` [Example 402, 6-(2,3-Difluoro-4-(2-(methyl(oxetan-3-yl)amino)ethoxy)benzyl)-9-hydroxy-5-methyl-7-oxo-N-(4-(trifluoromethyl)-2-(6-(trifluoromethyl)pyrimidin-4-yl)phenyl)-5,6-diazaspiro[3.5]non-8-ene-8-carboxamide], the IC50 stood at 12.8 µM.

Turning to `CN1N(Cc2ccc(OCCCOC[C@H](O)CO)c(F)c2F)C(=O)C(C(=O)Nc2ccc(C(F)(F)F)cc2-c2ccc(C(F)(F)F)nc2)=C(O)C12CCCC2` [Example 386], the IC50 was 18.9 µM.

`COCCN1CCN(CCOc2ccc(CN3C(=O)C(C(=O)Nc4ccc(C(F)(F)F)cc4-c4cc(C(F)(F)F)ncn4)=C(O)C4(CCCC4)N3C)c(F)c2F)CC1` [Example 377]: the IC50 was determined as 8.7 µM.

Consider `CN1N(Cc2ccc(OCCNCCS(=O)(=O)O)c(F)c2F)C(=O)C(C(=O)Nc2ccc(C(F)(F)F)cc2-c2cc(C(F)(F)F)ncn2)=C(O)C12CCCC2` [Example 435], for which the concentration for half-maximal inhibition (IC50) came out at 17.1 µM.

Regarding `CN1N(Cc2ccc(OCCCCCOC[C@H](O)CO)c(F)c2F)C(=O)C(C(=O)Nc2ccc(C(F)(F)F)cc2-c2ccc(C(F)(F)F)nc2)=C(O)C12CCC2` [Example 385], the IC50 is 6.2 µM.

`COCCN(C)CCN(C)c1ccc(CN2C(=O)C(C(=O)Nc3ccc(C(F)(F)F)cc3-c3cc(C(F)(F)F)ncn3)=C(O)C3(CCCC3)N2C)c(F)c1F` [Example 442]: the half-maximal inhibitory concentration (IC50) was 6.3 µM.

For the molecule `CN1N(Cc2ccc(OCCCCCOCCCO)c(F)c2F)C(=O)C(C(=O)Nc2ccc(C(F)(F)F)cc2-c2cc(C(F)(F)F)ncn2)=C(O)C12CCCC2` [Example 400], the IC50 turned out to be 9.2 µM.

Regarding `COCCN(C)CCN(c1ccc(CN2C(=O)C(C(=O)Nc3ccc(C(F)(F)F)cc3-c3cc(C(F)(F)F)ncn3)=C(O)C3(CCCC3)N2C)c(F)c1F)C(C)C` [Example 445], the concentration for half-maximal inhibition (IC50) turned out to be 9.2 µM.
